Columns and labels:
[1] = test system: pseudo-typed virus having S protein of SARS COV_2 S 501Y.V2 (B.1.351: β variant); assay type: cell-based, SARS-COV-2
[2] = test system: pseudo-typed virus having S protein of SARS COV_2 S VOC202012/01 (B.1.1.7: α variant); assay type: cell-based, SARS-COV-2

SMILES: N=C(N)c1ccc2cc(OC(=O)c3ccc(N=C(N)N)cc3)ccc2c1 [Nafamostat, nafamostat]
- infection inhibiting effect on β variant-type virus [1]: exhibited infection inhibiting effects
- infection inhibiting effect on α variant-type virus [2]: exhibited infection inhibiting effects

From patent US20250277059A1, “ANTIBODY USED TO TREAT CORONAVIRUS INFECTION” (priority 2022, published 2025)
